According to patent publication US20240150377A1, “MODULATORS OF CYSTIC FIBROSIS TRANSMEMBRANE CONDUCTANCE REGULATOR” (VERTEX PHARMACEUTICALS INCORPORATED, priority 2020, published 2024):
Like-named read-outs stand apart in the source and are kept apart here.

Target: CFTR (Homo sapiens, UniProt P13569)
Experiment: Membrane potential dye, Enteroid Assay B
Type: cell-based
Conditions: for EC50: read-out: Ent. B EC50; for Ent. B Max Activity: chloride transport as % of triple combination control (Enteroid Assay B)
Procedure, shortened: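 Fluorescence read over 15 min after chloride-free stimulation (10 μM forskolin, 100 μM IBMX, 300 nM Compound III) gave chloride transport, reported as % activity versus a triple-corrector/potentiator control. Beforehand, human enteroid cells had 18-24 h compound exposure at 37° C and 25 min methyl oxonol dye loading at room temperature.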

[1] = Table 8, human enteroid cells, 18-24 hours, acute 10 μM forskolin and 300 nM ivacaftor
[2] = Table 7, human enteroid cells, 18-24 hours, acute 10 μM forskolin and 300 nM ivacaftor

CFTR, sequence (P13569 with tags, fused parts or gaps DEL508-508): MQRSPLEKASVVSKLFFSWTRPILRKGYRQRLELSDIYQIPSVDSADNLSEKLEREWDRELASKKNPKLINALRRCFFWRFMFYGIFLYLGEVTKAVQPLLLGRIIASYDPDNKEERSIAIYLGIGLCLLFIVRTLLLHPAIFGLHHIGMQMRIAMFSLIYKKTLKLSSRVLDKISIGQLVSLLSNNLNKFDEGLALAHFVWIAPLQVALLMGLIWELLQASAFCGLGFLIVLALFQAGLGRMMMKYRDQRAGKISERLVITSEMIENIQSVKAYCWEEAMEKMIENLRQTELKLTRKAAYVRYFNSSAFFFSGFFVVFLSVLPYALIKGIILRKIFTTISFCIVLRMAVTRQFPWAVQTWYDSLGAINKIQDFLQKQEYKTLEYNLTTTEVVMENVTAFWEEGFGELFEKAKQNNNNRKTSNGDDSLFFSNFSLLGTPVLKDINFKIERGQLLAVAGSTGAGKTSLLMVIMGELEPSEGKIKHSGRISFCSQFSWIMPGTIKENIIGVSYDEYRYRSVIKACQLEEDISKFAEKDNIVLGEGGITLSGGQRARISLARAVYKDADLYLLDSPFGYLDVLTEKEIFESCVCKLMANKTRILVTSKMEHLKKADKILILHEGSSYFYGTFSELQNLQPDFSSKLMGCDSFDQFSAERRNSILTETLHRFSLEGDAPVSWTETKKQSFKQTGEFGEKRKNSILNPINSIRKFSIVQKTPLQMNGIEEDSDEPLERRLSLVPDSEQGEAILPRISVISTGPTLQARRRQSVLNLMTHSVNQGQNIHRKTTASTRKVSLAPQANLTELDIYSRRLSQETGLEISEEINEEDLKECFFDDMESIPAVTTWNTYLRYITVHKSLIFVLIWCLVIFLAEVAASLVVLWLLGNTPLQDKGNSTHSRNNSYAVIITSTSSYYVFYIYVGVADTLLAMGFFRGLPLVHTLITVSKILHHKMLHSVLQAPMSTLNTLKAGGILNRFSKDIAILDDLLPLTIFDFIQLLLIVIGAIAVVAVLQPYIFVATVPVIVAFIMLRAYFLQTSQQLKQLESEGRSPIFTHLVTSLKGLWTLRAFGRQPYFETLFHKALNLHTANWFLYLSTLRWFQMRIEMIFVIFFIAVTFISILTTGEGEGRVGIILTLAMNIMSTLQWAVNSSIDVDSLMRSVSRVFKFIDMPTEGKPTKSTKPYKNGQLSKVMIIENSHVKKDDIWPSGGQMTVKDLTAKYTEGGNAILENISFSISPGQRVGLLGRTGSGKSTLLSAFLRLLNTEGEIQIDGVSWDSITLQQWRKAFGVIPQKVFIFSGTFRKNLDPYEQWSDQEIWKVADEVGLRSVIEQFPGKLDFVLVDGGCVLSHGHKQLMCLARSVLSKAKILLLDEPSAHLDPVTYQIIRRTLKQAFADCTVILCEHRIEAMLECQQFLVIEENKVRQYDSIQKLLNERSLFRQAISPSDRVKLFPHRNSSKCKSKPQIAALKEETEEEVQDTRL

Row | SMILES | Ent. B Max Activity (%) (Table 9) | EC50 (Table 9) [nM] | Ent. B Max Activity (Table 8) | EC50 [1] [nM] | other results
1 | Cc1cccc(C)c1-c1cc2nc(n1)NSc1cccc(c1)C(=O)N(Cc1ccc(C(C)(C)O)cc1)[C@H](CC(C)(C)C(F)(F)F)CO2 [Compound 321] | +++ (+++ is >600%) | < 1000 |  |  | 
2 | Cc1cccc(C)c1-c1cc2nc(n1)NS(=O)(=O)c1cccc(c1)C(=O)N(CC1CC(C(C)(C)O)C1)[C@H](CC(C)(C)C)CO2 (some centres unmarked) [Compound 1020] |  |  | +++ (+++ is >60%) | < 1000 | 
3 | Cc1cccc(C)c1-c1cc2nc(n1)NS(=O)(=O)c1cccc(c1)C(=O)N(Cc1ncc(C(C)C)cn1)[C@H](CC(C)(C)C)CO2 [Compound 1077] | +++ (+++ is >600%) | < 1000 |  |  | 
4 | Cc1cccc(C)c1-c1cc2nc(n1)NS(=O)(=O)c1cccc(c1)C(=O)N(Cc1ccnc(N)c1)[C@H](CC(C)(C)C)CO2 [Compound 61, (11R)-12-[(2-Amino-4-pyridyl)methyl]-6-(2,6-dimethylphenyl)-11-(2,2-dimethylpropyl)-2,2-dioxo-9-oxa-2λ^6-thia-3,5,12,19-tetrazatricyclo[12.3.1.14,8]nonadeca-1(18),4(19),5,7,14,16-hexaen-13-one] | +++ (+++ is >600%) | < 1000 |  |  | 
5 | CNC(=O)Cc1ccc(CN2C(=O)c3cccc(c3)S(=O)(=O)Nc3nc(cc(-c4c(C)cccc4C)n3)OC[C@H]2CC(C)(C)C)cc1 [Compound 846] | +++ (+++ is >600%) | < 1000 |  |  | 
6 | COC(=O)NCCCN1C(=O)c2cccc(c2)S(=O)(=O)Nc2nc(cc(-c3c(C)cccc3C)n2)OC[C@H]1CC(C)C [Compound 409] |  |  |  |  | Ent. B Max Activity (Table 7): +++ (+++ is >60%); EC50 [2]: < 1000 nM
7 | C=C(C)c1cnc(CN2C(=O)c3cccc(c3)S(=O)(=O)Nc3nc(cc(-c4c(C)cccc4C)n3)OC[C@H]2CC(C)(C)C)nc1 [Compound 1078] | +++ (+++ is >600%) | < 1000 |  |  | 
8 | Cc1cccc(C)c1-c1cc2nc(n1)NS(=O)(=O)c1cc(n(C)n1)C(=O)N(Cc1ccccn1)[C@H](CC(C)(C)C)CO2 [Compound 930] |  |  | +++ (+++ is >60%) | < 1000 | 
9 | Cc1cccc(C)c1-c1cc2nc(n1)NS(=O)(=O)c1cccc(c1)C(=O)N(Cc1ncccc1N1CCOCC1)[C@H](CC(C)(C)C)CO2 [Compound 386] | +++ (+++ is >600%) | < 1000 |  |  | 
10 | Cc1cccc(C)c1-c1cc2nc(n1)NS(=O)(=O)c1cccc(c1)C(=O)N(Cc1ccc3c(c1)NC(=O)C3)[C@H](CC(C)(C)C)CO2 [Compound 799] | +++ (+++ is >600%) | < 1000 |  |  | 
11 | Cc1cccc(C)c1-c1cc2nc(n1)NS(=O)(=O)c1cccc(c1)C(=O)N(Cc1ccc(O)nn1)[C@H](CC(C)(C)C)CO2 [Compound 1097] |  |  | ++ (++ is 30-60%) | < 1000 | 
12 | Cc1cccc(C)c1-c1cc2nc(n1)NS(=O)(=O)c1cccc(c1)C(=O)N(CC1CC(O)(Cc3ccccc3)C1)[C@H](CC(C)(C)C)CO2 (single isomer, unassigned) [Compound 68] | +++ (+++ is >600%) | < 1000 |  |  | 
13 | Cc1cccc(C)c1-c1cc2nc(n1)NS(=O)(=O)c1cccc(c1)C(=O)N(CCCC(N)=O)[C@H](CC(C)C)CO2 [Compound 407] |  |  |  |  | Ent. B Max Activity (Table 7): +++ (+++ is >60%); EC50 [2]: 1000 to 3000 nM
14 | Cc1cccc(C)c1-c1cc2nc(n1)NS(=O)(=O)c1cccc(n1)C(=O)N(Cc1cccnc1)[C@H](CC(C)(C)C)CO2 [Compound 1083] |  |  | +++ (+++ is >60%) | < 1000 | 
15 | Cc1cccc(C)c1-c1cc2nc(n1)NS(=O)(=O)c1cccc(c1)C(=O)N(Cc1ncccc1N)[C@H](CC(C)(C)C)CO2 [Compound 390] | +++ (+++ is >600%) | < 1000 |  |  | 
16 | Cc1cccc(C)c1-c1cc2nc(n1)NS(=O)(=O)c1cccc(c1)C(=O)N(Cc1ccc3c(c1)CC(C)(C)O3)[C@H](CC(C)(C)C)CO2 [Compound 798] | +++ (+++ is >600%) | < 1000 |  |  | 
17 | Cc1cccc(C)c1-c1cc2nc(n1)NS(=O)(=O)c1cc(nn1C)C(=O)N(Cc1ccc(C(C)(C)O)cc1)[C@H](CC(C)(C)C)CO2 [Compound 927] |  |  | ++ (++ is 30-60%) | < 1000 | 
18 | COC(=O)N(C)CCN1C(=O)c2cccc(c2)S(=O)(=O)Nc2nc(cc(-c3c(C)cccc3C)n2)OC[C@H]1CC(C)C [Compound 410] |  |  |  |  | Ent. B Max Activity (Table 7): +++ (+++ is >60%); EC50 [2]: < 1000 nM

Row | SMILES | Ent. B Max Activity (%) (Table 9) | EC50 (Table 9) [nM] | Ent. B Max Activity (Table 8) | EC50 [1] [nM] | other results
19 | Cc1cccc(C)c1-c1cc2nc(n1)NS(=O)(=O)c1cc(n(C)n1)C(=O)N(Cc1ccc(C(C)(C)O)cc1)[C@H](CC(C)(C)C)CO2 [Compound 923] |  |  | +++ (+++ is >60%) | < 1000 | 
20 | COC(=O)Nc1ccc(CN2C(=O)c3cccc(c3)S(=O)(=O)Nc3nc(cc(-c4c(C)cccc4C)n3)OC[C@H]2CC(C)(C)C)cn1 [Compound 402] |  |  | +++ (+++ is >60%) | < 1000 | 
21 | Cc1cccc(C)c1-c1cc2nc(n1)NS(=O)(=O)c1cccc(c1)C(=O)N(Cc1ccc(C(C)(C)O)nc1)[C@H](CC(C)(C)C)CO2 [Compound 1089] |  |  | +++ (+++ is >60%) | < 1000 | 
22 | Cc1cccc(C)c1-c1cc2nc(n1)NS(=O)(=O)c1cccc(c1)C(=O)N(CC13CC(C(C)(C)O)(C1)C3)[C@H](CC(C)(C)C)CO2 [Compound 69, (11R)-6-(2,6-Dimethylphenyl)-11-(2,2-dimethylpropyl)-12-[[3-(1-hydroxy-1-methyl-ethyl)-1-bicyclo[1.1.1]pentanyl]methyl]-2,2-dioxo-9-oxa-2λ^6-thia-3,5,12,19-tetrazatricyclo[12.3.1.14,8]nonadeca-1(18),4(19),5,7,14,16-hexaen-13-one] | +++ (+++ is >600%) | < 1000 |  |  | 
23 | Cc1cccc(C)c1-c1cc2nc(n1)NS(=O)(=O)c1cccc(n1)C(=O)N(Cc1ccc(C(C)(C)O)cc1)[C@H](CC(C)(C)C)CO2 [Compound 1092] |  |  | +++ (+++ is >60%) | < 1000 | 
24 | COC(=O)Nc1cccc(CN2C(=O)c3cccc(c3)S(=O)(=O)Nc3nc(cc(-c4c(C)cccc4C)n3)OC[C@H]2CC(C)(C)C)c1 [Compound 506] |  |  | +++ (+++ is >60%) | < 1000 | 
25 | Cc1cccc(C)c1-c1cc2nc(n1)NS(=O)(=O)c1cccc(c1)C(=O)N(CCCC(C)(C)O)[C@H](CC(C)(C)O)CO2 [Compound 662] |  |  | + (+ is <30%) | 1000 to 3000 | 
26 | Cc1cccc(C)c1-c1cc2nc(n1)NS(=O)(=O)c1cc(nn1C)C(=O)N(Cc1ccccc1)[C@H](CC(C)(C)C)CO2 [Compound 928] |  |  | ++ (++ is 30-60%) | < 1000 | 
27 | Cc1cccc(C)c1-c1cc2nc(n1)NS(=O)(=O)c1cccc(c1)C(=O)N(CC1CCC(C)(O)CC1)[C@H](CC(C)(C)C)CO2 (single isomer, unassigned) [Compound 149] |  |  | +++ (+++ is >60%) | < 1000 | 
28 | Cc1cccc(C)c1-c1cc2nc(n1)NS(=O)(=O)c1cccc(c1)C(=O)N(C[C@H]1CC[C@@H](C(C)(C)O)CC1)[C@H](CC(C)(C)C)CO2 [Compound 796] | +++ (+++ is >600%) | < 1000 |  |  | 
29 | Cc1cccc(C)c1-c1cc2nc(n1)NS(=O)(=O)c1cccc(c1)C(=O)N(Cc1cnc(O)nc1)[C@H](CC(C)(C)C)CO2 [Compound 1096] |  |  | + (+ is <30%) |  | 
30 | Cc1cccc(C)c1-c1cc2nc(n1)NS(=O)(=O)c1cccc(c1)C(=O)N(CC1CC(O)(Cc3ccccc3)C1)[C@H](CC(C)(C)C)CO2 (single isomer, unassigned) [Compound 67] | +++ (+++ is >600%) | < 1000 |  |  | 
31 | Cc1cccc(C)c1-c1cc2nc(n1)NS(=O)(=O)c1cc(n(C)n1)C(=O)N(Cc1ncccn1)[C@H](CC(C)(C)C)CO2 [Compound 929] |  |  | +++ (+++ is >60%) | < 1000 | 
32 | CNC(=O)c1ccc(CN2C(=O)c3cccc(c3)S(=O)(=O)Nc3nc(cc(-c4c(C)cccc4C)n3)OC[C@H]2CC(C)(C)C)nc1 [Compound 397] |  |  | +++ (+++ is >60%) | < 1000 | 
33 | Cc1cccc(C)c1-c1cc2nc(n1)NS(=O)(=O)c1cccc(c1)C(=O)N(Cc1cncnc1)[C@H](CC(C)(C)C)CO2 [Compound 1095] |  |  | +++ (+++ is >60%) | < 1000 | 
34 | Cc1cccc(C)c1-c1cc2nc(n1)NS(=O)(=O)c1cccc(c1)C(=O)N(Cc1ccc(-c3csc(OC(C)C)n3)cc1)[C@H](CC(C)(C)C)CO2 [Compound 318] | +++ (+++ is >600%) | < 1000 |  |  | 
35 | Cc1cccc(C)c1-c1cc2nc(n1)NS(=O)(=O)c1cccc(c1)C(=O)N(CC1CC(C)(O)C1)[C@H](CC(C)(C)C)CO2 (some centres unmarked) [Compound 664] |  |  | +++ (+++ is >60%) | < 1000 | 
36 | Cc1cccc(C)c1-c1cc2nc(n1)NS(=O)(=O)c1cccc(c1)C(=O)N(Cc1cccc(NC(=O)OC(C)C)c1)[C@H](CC(C)(C)C)CO2 [Compound 507] |  |  | +++ (+++ is >60%) | < 1000 | 
